The values that follow come from US20210283082A1, “PHARMACEUTICAL COMPOSITION FOR PREVENTION OR TREATMENT OF KIDNEY DAMAGE” (National University Corporation Kanazawa University, priority 2018, published 2021).

The test system of one data set is rats. The conditions noted are these: intraperitoneal, 800 mg/kg (NPL 3), 400 mg/kg (NPL 4) or 250 mg/kg (NPLs 5 and 6); cited from earlier work.
Data set [1] concerns mice treated by renal ischemia reperfusion. Nature of the data set: Renal ischemia reperfusion, PAS staining and ATN score of kidney tissue sections. The class given is in vivo. As for the experimental part:
The animals were reared with free access to water and feed under conditions with an SPF environment and 12-hour light-dark cycling. C57BL/6J mice were purchased from Clea Japan, Inc. (Osaka). Male 12- to 16-week-old mice were treated by renal ischemia reperfusion (hereunder also referred to as “I/R”). The renal pedicles were clamped with a non-traumatic clip (Natsume Seisakusho, Tokyo) under pentobarbital anesthesia to elicit ischemia. The clips were released after 40 minutes. The body temperature was kept at 37° C. during treatment. The mice were reared with free access to water (control) or 20 mM D-serine-containing water, prior to 14 days after IR treatment. On day 0, 2, 5, 7 and 10 after IR treatment, the kidney tissues were sampled. Kidneys sampled on day 0, 2 and 10 were fixed with 10% neutral buffered formalin and embedded in paraffin, and then stained with periodic acid-Schiff (PAS staining). The stained slices were photographed with a bright-field microscope (FIG. 1). Debris stained with PAS (skin boundary) or brush border (skin boundary and cortical region) were quantitatively evaluated in at least 10 different locations. Renal tubule necrosis (A), intraluminal debris (B) and brush border region (C) were evaluated by ATN score (0: none, 1: mild, 2: moderate, 3: severe), with the results shown in FIGS. 2(A) to (C). Sample evaluation was carried out blind.

A short description of data set [2]: Blood D-serine concentration after free provision of 20 mM D-serine water. The class given is in vivo. The conditions noted are these: mice reared with free access to 20 mM D-serine-containing water. As for the experimental part: The animals were reared with free access to water and feed under conditions with an SPF environment and 12-hour light-dark cycling. C57BL/6J mice were purchased from Clea Japan, Inc. (Osaka).
The mice were reared in an environment allowing free access to water (control) or 20 mM D-serine-containing water, and the blood D-serine concentrations were measured. The blood D-serine concentrations were determined by total amino acid optical isomer analysis using a D, L-amino acid simultaneous high sensitivity analysis system developed by Zaitsu et al. (Japanese Patent No. 4291628). The details regarding the analysis conditions for each amino acid are described in Miyoshi Y. et al., J. Chromatogr. B, 879:3184(2011) and Sasabe, J. et al., Proc. Natl. Acad. Sci. U.S.A., 109:627(2012). In brief, serum and urine amino acids were fluorescently derivatized with NBD-F (4-fluoro-7-nitro-2,1,3-benzooxadiazole, Tokyo Kasei Kogyo Co., Ltd.) and supplied to an HPLC system (NANOSPACE SI-2 Series, product of Shiseido Corp.). NBD-amino acids separated two-dimensionally using an in-house reversed-phase column with an octadecyl group as the stationary phase and a chiral column with an amino acid derivative as the stationary phase, were quantitatively analyzed after detection at an excitation wavelength of 470 nm and a detection wavelength of 530 nm. […]

Data set [3] has as its system mice treated by renal ischemia reperfusion. Nature of the data set: Renal ischemia reperfusion, F4/80 immunostaining of kidney tissue (macrophages). The class given is in vivo. The conditions noted are these: day 5 after ischemia reperfusion; 20 mM D-serine water vs water. As for the experimental part: The animals were reared with free access to water and feed under conditions with an SPF environment and 12-hour light-dark cycling. C57BL/6J mice were purchased from Clea Japan, Inc. (Osaka). Male 12- to 16-week-old mice were treated by renal ischemia reperfusion (hereunder also referred to as “I/R”). The renal pedicles were clamped with a non-traumatic clip (Natsume Seisakusho, Tokyo) under pentobarbital anesthesia to elicit ischemia. The clips were released after 40 minutes. The body temperature was kept at 37° C. during treatment. The mice were reared with free access to water (control) or 20 mM D-serine-containing water, prior to 14 days after IR treatment. On day 0, 2, 5, 7 and 10 after IR treatment, the kidney tissues were sampled. Renal samples harvested on day 0 and day 5 were fixed with 10% neutral buffered formalin and supplied for immunostaining using F4/80 antibody (Invitrogen, catalog #: MF48,000). F4/80 is a protein expressed specifically by macrophages, and it allows visualization of macrophages in kidney tissue. In the water-administered control group, cells stained with F4/80 were found accumulated in kidney tissue (day 5), but in the D-serine-administered group such cellular accumulation was minimal (FIG. 3(A)). The regions stained with F4/80 in the kidney tissue harvested on day […] were measured and shown (FIG. 3(B)).

Entries after “also recorded” stand apart in the source; their conditions may differ.

As for `N[C@H](CO)C(=O)O` [D-serine], in the data set on rats, the nephrotoxicity result is reported as “causes nephrotoxicity”. Besides, in data set [1] (0, 2, 5, 7 and 10 days after ischemia reperfusion, compared to the group given water), the “grades of necrosis, intraluminal debris and brush border region (ATN score)” value was “improved”. In data set [1] (day 10 after ischemia reperfusion, 20 mM D-serine water vs water), the “PAS staining intensity of kidney tissue section (accumulation of inflammatory cells such as neutrophils and eosinophils)” value is “no such change in staining intensity”. Further, the “protecting effect on the kidneys” value in data set [1] (mice, drinking water containing 20 mM D-serine, blood concentration 100 nmol/mL) is on record as “able to exhibit a protecting effect on the kidneys”. In data set [2], the “blood D-serine concentration” value came to 100 nmol/mL. The “F4/80 staining of kidney tissue (accumulation of macrophages and monocytes)” value in data set [3] is “little change in staining intensity; also recorded: minimal”.
